“Also recorded” adds a separate entry of the source.
Legend:
[1] = Absorption/emission profiles and spectral properties of the dyes; type: physicochemical
Procedure: The following properties of 679 Compound 1-NHS were compared with commercially available dyes.
Emission/excitation profiles for inventive and commercial compounds was determined by reconstituting the compounds in DMF at 10 mg/ml and then diluting in PBS buffer pH 7.2 to 10 μg/ml. Absorbance spectra were collected on Cary UV spectrophotometer and emission spectra were collected on Tecan Safire, shown in FIG. 1 where solid lines represent absorbance spectra and dashed lines represent emission spectra, for DyLight 680-NHS (purple), DyLight 680B-NHS (blue), 679 Compound 1-NHS (red), and Company B Compound-NHS (black). The maximum absorbance and emission for each compound is shown below.
The following properties of 679 Compound 1-NHS, 679 Compound 4/4-NHS (V08-15173), and 679 Compound 4/4-NHS (V10-04152) were compared with commercially available dyes.

lamin A [2] = experiment: Immunofluorescence of nuclear envelope in U2OS cells, mouse anti-lamin A, dye-GAM (FIG. 43); type: cell-based, human; conditions: FIG. 43A
Procedure: U2OS (human bone cancer) or HeLa cells were seeded at 5,000 cells per well in 96-well plates and incubated for 18-20 hours at 37° C., 5% CO2 in a humidified incubator. The cells were fixed with 4% paraformaldehyde and permeabilized with 0.1% Thermo Scientific Surfact-Amps X-100 Detergent, then blocked for nonspecific IgG binding. Cells were incubated with a target-specific primary antibody for 30 minutes at room temperature (RT). After washing with PBS containing 0.05% Tween™-20 Detergent Solution, cells were incubated for 30 minutes at RT with 4 μg/mL of the appropriate secondary antibody conjugated with 679 Compound 4/4 and compared to similarly conjugated counterparts (DyLight 680, Alexa Fluor™ 680, and CF™ 680 Dyes) for 30 minutes at RT. The conjugates were affinity purified goat anti-mouse IgG (H+L) (GAM) or goat anti-rabbit IgG (H+L) (GAR). […] Microscopy time lapse experiments to measure dye photostability were performed using the appropriate shift-free optical filter set with a 40×/1.3 oil objective on a Zeiss Axio Observer™ .Z1 fluorescence microscope using an ORCA-ER-1394 Hamamatsu, CCD Digital Camera and the AxioVison™ Release 4.7 Software. […]
The nuclear envelop in U2OS cells was fluorescently labeled with mouse anti-lamin A primary antibody and detected with goat anti-mouse conjugated to 679 Compound 4/4-NHS, DyLight 680-NHS, Alexa Fluor 680-NHS and CF 680-SE Dyes. […]

[3] = In vivo biodistribution and clearance of free dye; parameters: species or system nude mice; conditions: 100 μL of 1 mg/mL hydrolyzed dye IV via retro orbital plexus, imaged to 24 h
Procedure: In in vivo biodistribution, the mice received intravenous dye injections via the retro orbital plexus and were imaged on a Carestream MSFX Imager (690 nm excitation/750 nm emission) before injection and at 0 h, 3 h, 6 h, 12 h, and 24 h post injection. After the final time point, animals were sacrificed and organs were collected for ex vivo imaging. Toxicity was evaluated by investigating the dissected tissue section.
Biodistribution and clearance was investigated in the live animals over time by measuring the clearance or specific retention of the dye/labeled target. Experiments were performed in triplicate on nude mice. 100 μL of 1 mg/mL hydrolyzed dye solution was IV injected via the retro orbital plexus. Animals were imaged using 690 nm excitation and 750 nm emission at 140 mm FOV on a Carestream XTREME (10 s) Imager. Images taken before (pre) and at 0 min, 10 min, 30 min, 1 hour, 3 hour, 6 hour, 12 hour and 24 hours post injection are shown in FIG. 44B. After the final time point, the organs were collected for ex vivo imaging to confirm and quantify accumulation of the agent in tumors, tissues, and other organs (heart, liver, spleen, GI tract, lungs and kidney), as shown in FIG. 44C using triplicate mice. 679 Compound 4/4 allowed for probe conjugation, high fluorescence with excellent sensitivity for deep-tissue in vivo imaging, and target quantification in tissues.

[4] = Dye toxicity, H&E histology of heart, liver, spleen, lungs, kidney; type: in vivo; conditions: H&E staining of tissues after 24 h
Procedure: After the final time point, animals were sacrificed and their organs collected for ex vivo imaging to confirm and quantify dye accumulation in tumors, tissues, and other organs such as heart, liver, spleen, GI tract, lungs, and kidney. Images were taken before (pre), and at 0 min, 10 min, 30 min, 1 hour, 3 hour, 6 hour, 12 hour, and 24 hour post injection. To test dye toxicity, heart, liver, spleen, lungs and kidney tissues were gathered from one mouse from each cohort, fixed, stained with hematoxylin and eosin (H&E), and evaluated.
Colorimetric images were acquired at 20× on a Nikon 90i microscope.

[5] = Photobleaching without anti-fade, U2OS cells stained with lamin B1/dye-conjugated GAR; type: physicochemical
Procedure: Photobleaching of inventive and commercial compounds without anti-fade reagent was examined. U2OS cells stained with lamin B1/dye-conjugated GAR were exposed to bright light (3.4V) for 8 sec at intervals of 1 sec, the overall capture amounting to a total of about 15 min using the TR filter Obj.: 20× NA: 0.4 on the Zeiss Axio Observer .Z1 microscope. The image stacks collected from the time-lapse experiment were analyzed using ImageJ software to determine the decay rate of fluorescence intensity. The raw intensity was normalized to initial intensity for each conjugate and the photobleaching curve was plotted against time, as shown in FIG. 48. Immunostaining with 679 Compound 4/4 conjugate had shown about 2 to 3-fold brighter staining intensity compared to DyLight 680 Dye.

lamin A [6] = experiment: Immunofluorescence, U2OS cells, mouse anti-lamin A, dye-GAM secondary (FIG. 25); type: cell-based, human
Procedure: The inventive compounds and commercial dye were evaluated for immunofluorescence in a second cell based assay using the following protocol. Frozen U20S cell plates stored at −20° C. were placed overnight at 4° C. Storage buffer (PBS) was removed and the cells were permeabilized for 15 min (100 μl/well) with 0.1% Triton-X100 in 1×PBS buffer. Plates were blocked for 30 min in 2% BSA in 1× PBS-0.1% Trion-X100. Primary antibodies diluted in 2% BSA in 1×PBS-0.1% Trion-X100 were added to the plates (column 1-11; column 12 included only blocker) and incubated five hours at room temperature. Mouse anti-lamin A was added at 2 μg/ml and rabbit anti-lamin B1 was added at 4 μg/ml. After incubation, the antibody solution was removed from the plates and the plates were washed PBS-0.5% Tween-20 (2×100 μl/well). Next, GAM and GAR secondary antibodies labeled with DyLight 680-NHS, DyLight 680B-NHS, 679 Compound 1-NHS, and Cy5.5 Mono Ester were diluted to 4 μg/ml in PBS and incubated with the cells for one hour at room temperature. […], DyLight 680B-NHS, 679 Compound 1-NHS, […] PBS and then serially diluted 1:1 in the plate to the following concentrations: 2 μg/ml, 1 μg/ml, 0.5 μg/ml, 0.25 μg/ml, 0.125 μg/ml and/or 0.0625 μg/ml. The plates were washed 3× with 100 μl/well PBS, and Hoechst stain diluted to 0.1 μg/ml in PBS was added to each well (100 μl/well). The plates were scanned on ArrayScan Plate Reader for imaging and quantitation.
Quantitative analysis of FIG. 25 data, expressed as Mean Total Intensity, which is the average total intensity of all pixels within a defined area or defined primary object such as a nucleus, is shown below.

[7] = tested on: rabbit IgG immunoglobulin; experiment: Functional fluorescence plate assay, dye-GAR conjugates; type: binding; conditions: LiCOR Odyssey, FIGS. 17, 19
Procedure: Performance of the dye-GAM conjugates, dye-GAR conjugates, and dye-SA conjugates was evaluated in a functional plate assay. Wells of a 96 white opaque plate or black clear-bottom plate were coated with target proteins mouse IgG immunoglobulin, rabbit IgG immunoglobulin, or biotinylated bovine serum albumin (BBSA). One hundred μl mouse or rabbit IgG, or BBSA at a concentration of 10 μg/ml was applied to the corresponding wells in columns 1 and 2. The target proteins were serially diluted 1:1 from the wells in columns 2 to 11 using 100 μl PBS. One hundred μl of the samples from the wells in column 11 were discarded. One hundred μl PBS was added to the wells in column 12. The plates were incubated overnight at 4° C. and then blocked 2×200 μl with Thermo Scientific SuperBlock® Blocking Buffer. The coated plates were washed 2×200 μl with PBS-Tween and 1×200 μl with PBS. Based on the calculated concentrations, conjugates were diluted 1:250 in PBS, added to the corresponding plates (100 μl/well) and then incubated for one hour in the dark. The plates were washed with 2×200 μl with PBS-Tween and 1×200 μl with PBS and filled with PBS buffer (100 μl/well) prior to scanning the white opaque plates on Tecan Safire using 679 nm excitation/702 nm emission or scanning the black clear-bottom plates on LiCor Odyssey at 700 channel, to detect fluorescence intensity.

lamin A [8] = experiment: Immunofluorescence detection of lamin A in U2OS cells, dye-GAM secondary (FIG. 29A-C and repeat); type: cell-based, human; conditions: for Mean Total Intensity, Negative control: no primary antibody
Procedure: In the indicated experiments, the inventive compounds and commercial dye were evaluated for immunofluorescence in a cell based assay using the following protocol. Frozen U20S cell plates which were stored at −80° C. were thawed for 45 minutes at 50° C. Storage buffer (PBS) was removed and the cells were permeabilized for 15 minutes with 0.1% Triton-X100 in 1×PBS buffer (100 μl/well). The cell plate was blocked for 60 minutes in 2% BSA/PBS-0.1% Triton-X100. Primary antibody, either rat anti-Grp94 (5 μg/ml), mouse anti-lamin A (10 μg/ml), or rabbit anti-lamin B1 (10 μg/ml), diluted in 2% BSA/PBS-0.1% Triton-X100 was added to the plate and incubated for 1 hour at room temperature. Control wells contained only 2% BSA/PBS-0.1% Triton-X100 blocker. After incubation, the antibody solution was removed from the plate and the plate was washed three times with 100 μl/well of PBS-0.5% Tween-20 and one time with 100 μl/well PBS. GARat, GAM, or GAR secondary antibodies labeled with various molar excess of the inventive or commercial compound were diluted to 4 μg/ml in PBS and incubated for 1 hour at room temperature. The plates were washed three times with 100 μl/well of PBST and once with 100 μl/well PBS, and Hoechst (diluted to 0.1 μg/ml in PBS) was added to each well (100 μl/well). The plates were scanned on ArrayScan Plate Reader or ToxInsight Instrument.
Quantitative analysis of a repeat experiment of FIG. 29A-C are shown below.

For COCCOCCOCCOCC[N+]1=C(/C=C/C=C/C=C2/N(CCOCCOCCOCCOCCC(=O)O)c3ccc4c(S(=O)(=O)[O-])cc(S(=O)(=O)O)cc4c3C2(C)CCOCCOCCOCCOC)C(C)(CCOCCOCCOCCOC)c2c1ccc1c(S(=O)(=O)O)cc(S(=O)(=O)O)cc21 (centres unmarked) [679 Compound 4/4], the emits at [1] was 706 nm, the excites at [1] was 684 nm and the “staining intensity, fold brighter compared to DyLight 680-GAM, Alexa Fluor 680-GAM and CF 680-GAM” value (lamin A [2]) was 2-3 fold. For the same compound, the “biodistribution and clearance (in words)” value [3] was “rapid clearance through kidney and/or gastrointestinal tract; also recorded: fast whole-body dye uptake and displayed rapid dye clearance mainly through the kidney and GI tract”, the “toxicity (in words)” value [4] was “low intrinsic toxicity; also recorded: No tissue damage was observed from histology” and the “photostability (in words)” value ([5]; absence of anti-fade agent) was “slightly less stable than DyLight 680 dye”. For the same compound, the “staining intensity, fold brighter compared to DyLight 680 Dye” value ([5]; immunostaining) was 2 to 3 fold.

For Cy5.5, the “Mean Total Intensity” value (lamin A [6]; GAM conjugated at 2X molar excess) was 211945, the “Mean Total Intensity” value (lamin A [6]; GAM conjugated at 3X molar excess) was 342208 and the “Mean Total Intensity” value (lamin A [6]; GAM conjugated at 4X molar excess) was 451111.

With COCC[N+]1=C(/C=C/C=C/C=C2/N(CCCCCC(=O)O)c3ccc4c(S(=O)(=O)[O-])cc(S(=O)(=O)[O-])cc4c3C2(C)C)C(C)(CCCS(=O)(=O)[O-])c2c1ccc1c(S(=O)(=O)[O-])cc(S(=O)(=O)[O-])cc21.[Na+].[Na+].[Na+].[Na+] (centres unmarked) [679 Compound 1/1, 2-{(1E,3E)-5-[3-(5-Carboxypentyl)-1,1-dimethyl-6,8-disulfo-1,3-dihydro-benzo[e]indol-(2E)-ylidene]-penta-1,3-dienyl}-3-(2-methoxy-ethyl)-1-methyl-6,8-disulfo-1-(3-sulfopropyl)-1H-benzo[e]indolium] the “Raw Fluorescence Intensity, quenching at high molar excess (in words)” value [7] was “saturating at 25×; also recorded: apparent quenching at 1000 ng/well at 25×”, the “Mean Total Intensity (Average)” value (lamin A [8]; GAM conjugate 4 μg/ml, 2.5 X molar excess) was 29229 and the “Mean Total Intensity (Average)” value (lamin A [8]; GAM conjugate 4 μg/ml, 5.0 X molar excess) was 49279. For the same compound, the “Mean Total Intensity (Average)” value (lamin A [8]; GAM conjugate 4 μg/ml, 7.5 X molar excess) was 28782, the “Mean Total Intensity (Average)” value (lamin A [8]; GAM conjugate 4 μg/ml, 10 X molar excess) was 30098 and the “Mean Total Intensity (Average)” value (lamin A [8]; GAM conjugate 4 μg/ml, 15 X molar excess) was 48071. The “Mean Total Intensity, Negative control” value (lamin A [8]; 2.5 X) was 5628, the “Mean Total Intensity, Negative control” value (lamin A [8]; 5.0 X) was 5859 and the “Mean Total Intensity, Negative control” value (lamin A [8]; 10 X) was 6115. For the same compound, the “Mean Total Intensity, Negative control” value (lamin A [8]; 15 X) was 7277, the S/B (lamin A [8]; repeat experiment, 2.5 X) was 8.9 and the “Mean Total Intensity (Average)” value (lamin A [8]; repeat experiment, 2.5 X molar excess) was 77195. For the same compound, the S/B (lamin A [8]; repeat experiment, 5 X) was 16.2, the “Mean Total Intensity (Average)” value (lamin A [8]; repeat experiment, 5 X molar excess) was 140772 and the S/B (lamin A [8]; repeat experiment, 10X) was 7.8. For the same compound, the “Mean Total Intensity (Average)” value (lamin A [8]; repeat experiment, 10X molar excess) was 159948, the S/B (lamin A [8]; repeat experiment, 15 X) was 12.3 and the “Mean Total Intensity (Average)” value (lamin A [8]; repeat experiment, 15 X molar excess) was 199626. The “Mean Total Intensity, Negative control” value (lamin A [8]; repeat experiment, 2.5 X) was 8711, the “Mean Total Intensity, Negative control” value (lamin A [8]; repeat experiment, 5 X) was 8674 and the “Mean Total Intensity, Negative control” value (lamin A [8]; repeat experiment, 10X) was 20481. The “Mean Total Intensity, Negative control” value (lamin A [8]; repeat experiment, 15 X) was 16277.
